# Measurements published in US20060127329A1, “Tartar control oral care composition containing extract of magnolia” (Colgate-Palmolive Company, priority 2004, published 2006).
# Tested on: representative oral bacteria S. mutans, F. nucleatum, V. parvula, A. naslundii, P. gingivitis
# Assay: in vitro test Minimal Inhibitory Concentration (MIC)
# Type: cell-based
# Settings: no numbers given
# From the text: The compositions of the present invention comprise at least one active compound found in an extract of magnolia. As referred to here, such an “extract” of magnolia is an extract from dried cortex, or bark, of a plant from the Magnoliaceae family, such as Magnolia officinalis, (hereinafter “magnolia”) or a synthetic or semi-synthetic equivalent of such an extract or an active component thereof. […] In other embodiments, the antibacterial ingredient comprises an extract of magnolia. […] It should be noted that any plant from the Magnoliaceae family is suitable for the present invention and may be used in alternate embodiments, preferably such that the extract comprises an antimicrobially effective concentration of a compound selected from the group consisting of magnolol, honokiol, tetrahydromagnolol, tetrahydrohonokiol, and mixtures thereof.
row,Structure (SMILES),bactericidal properties against representative oral bacteria
1,C=CCc1ccc(O)c(-c2ccc(O)c(CC=C)c2)c1 [honokiol],demonstrated bactericidal properties
2,C=CCc1ccc(O)c(-c2cc(CC=C)ccc2O)c1 [magnolol],demonstrated bactericidal properties
3,CCCc1ccc(O)c(-c2ccc(O)c(CCC)c2)c1 [tetrahydrohonokiol],demonstrated bactericidal properties
4,CCCc1ccc(O)c(-c2cc(CCC)ccc2O)c1 [tetrahydromagnolol],demonstrated bactericidal properties
